Reference: US20230286973A1, “PROTEIN SECRETION INHIBITORS” (KEZAR LIFE SCIENCES, priority 2020, published 2023)
Where two headings read alike, the source gives them in different places.

Columns and labels:
[1] = test system: PD1-ss+10aa/Gaussia Luciferase; experiment: Dox-Induced PD1-ss-Gluc Assay; assay type: cell-based; details: 24 hr Dox induction, 293FRT/TO cells, read-out: 24 hr Dox Inducible PD1ssGluc 293FRT/TO: Mean IC50
Summary of the method: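 Flp-In 293 T-REx, stable line; Tet-regulated PD1-ss+10aa fused to Gaussia luciferase; plated day prior; cpd + doxycycline in DMSO/media; 37 °C, 5% CO2.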

[2] = test system: TNFα-FL/Gaussia Luciferase; experiment: Dox Induced TNFα-FL-Gluc Assay; assay type: cell-based; details: for IC50: 24 hr Dox induction, 293FRT/TO cells, read-out: 24 hr Dox Inducible TNFaFLGluc 293FRT/TO: Mean IC50; for 24 hr Dox Inducible TNFaFLGluc 293FRT/TO: TNF/PD1: ratio of TNFaFLGluc IC50 to PD1ssGluc IC50
Summary of the method: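 Cells are seeded one day ahead, then treated with compound plus doxycycline at 37 °C, 5% CO2. The stable Flp-In 293 T-REx line expresses full-length TNFα (amino acids 1-233) with Gaussia luciferase fused to its 3′ end, inducibly via T-REx.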

[3] = test system: HER3-ss+4aa/Gaussia Luciferase; experiment: Dox-Induced Her3-ss-Gluc Assay; assay type: cell-based; details: 24 hr Dox induction, 293FRT/TO cells, read-out: 24 hr Dox Inducible Her3(ss + 4)Gluc 293FRT/TO: Mean IC50
Summary of the method: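 Expression of a Gaussia luciferase reporter carrying the HER3 signal sequence plus 4 amino acids is induced by doxycycline in stably transfected Flp-In 293 T-REx cells. Compounds are added with doxycycline at 37° C., 5% CO2. Undefined stereocentres denote stereoisomer mixtures.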

[4] = test system: IL-2-FL/Gaussia Luciferase; experiment: Dox Induced IL2-FL-Gluc Assay; assay type: cell-based; details: for IC50: 24 hr Dox induction, 293FRT/TO cells, read-out: 24 hr Dox Inducible IL2FLGluc 293FRT/TO: Mean IC50; for 24 hr Dox Inducible IL2FLGluc 293FRT/TO: IL2/PD1: ratio of IL2FLGluc IC50 to PD1ssGluc IC50
Summary of the method: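 Reporter is Gaussia luciferase fused to the 3′ end of full-length IL-2 (aa 1-153), expressed from a doxycycline-inducible T-REx construct in stably selected Flp-In 293 cells. Compounds were co-added with doxycycline and incubated at 37° C, 5% CO2.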

[5] = test system: multiple myeloma cell line NCI-H929; experiment: H929 Cell Viability Assay; assay type: cell-based, human; details: Homo sapiens, NCI-H929, 48 h, NCI-H929 cells, Celltiter-Glo
Summary of the method: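 Plate the myeloma cells in RPMI 1640 with 10% FBS, add serially diluted compound, incubate for 48 hours at 37° C, then add CellTiter-Glo and read luciferase signal.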

[6] = test system: multiple myeloma cell line U266B1; experiment: U266 Cell Viability Assay; assay type: cell-based, human; details: Homo sapiens, U-266, 48 h, U266B1 cells, Celltiter-Glo
Summary of the method: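 48 h treatment, 37° C./5% CO2, RPMI 1640 + 10% FBS; viability by CellTiter-Glo luminescence.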

[7] = Liver Microsome Stability Assay (rat); details: rat liver microsomes, with NADPH, 1.0 uM compound
Protocol: (§1) Stability of a compound was assessed in the presence of liver microsomes from various sources—mouse, rat, monkey and human liver microsomes. 1.0 uM compound, 0.4% DMSO in 0.1 M Potassium Phosphate with 1.0 mg/mL liver microsomes, were incubated at 37° C. with or without 1 mM NADPH. The samples were quenched at 0, and 30 minutes.

[8] = Liver Microsome Stability Assay (mouse); details: mouse liver microsomes, with NADPH, 1.0 uM compound
Protocol: as §1

[9] = Liver Microsome Stability Assay (human); details: human liver microsomes, with NADPH, 1.0 uM compound
Protocol: as §1

[10] = Liver Microsome Stability Assay (monkey); details: monkey liver microsomes, with NADPH, 1.0 uM compound
Protocol: as §1

[11] = '<=>' given where both are I.A.

| Structure (SMILES) | IC50 ([1]; mean) [nM] | IC50 ([2]; mean) [nM] | 24 hr Dox Inducible TNFaFLGluc 293FRT/TO: TNF/PD1 [2, 11] | IC50 ([3]; mean) [nM] | IC50 ([4]; mean) [nM] | 24 hr Dox Inducible IL2FLGluc 293FRT/TO: IL2/PD1 [4, 11] | EC50 [5] [nM] | EC50 [6] [nM] | Liver Microsome Stability (Multiple Species): Rat - % Remaining after 30 min w/NADPH [7] [%] | Liver Microsome Stability (Multiple Species): Mouse - % Remaining after 30 min w/NADPH [8] [%] | Liver Microsome Stability (Multiple Species): Human - % Remaining after 30 min w/NADPH [9] [%] | Liver Microsome Stability (Multiple Species): Monkey - % Remaining after 30 min w/NADPH [10] [%] | IC50 [1] [nM] | IC50 [2] [nM] | 24 hr Dox Inducible TNFaFLGluc 293FRT/TO: TNF/PD1 [2] | IC50 [3] [nM] | IC50 [4] [nM] | 24 hr Dox Inducible IL2FLGluc 293FRT/TO: IL2/PD1 [4] |
| --- | --- | --- | --- | --- | --- | --- | --- | --- | --- | --- | --- | --- | --- | --- | --- | --- | --- | --- |
| NC(=O)CCCn1cccc1C(=O)Nc1nc([C@H]2CCCN2c2ccccc2)cs1 [Compound C7] | 3700 | > 25000 | >6.75 | 7970 | > 25000 | 6.8 | > 25000 | > 25000 | 27.6 | 26.6 | 39.7 | 10.4 |  |  |  |  |  |  |
| Cc1cc(C(=O)Nc2nc([C@H]3CCCN3c3ccc(NC(=O)N(C)C)cc3)cs2)n(Cc2ccnc(F)c2)c1 [Compound A163, (R)-N-(4-(1-(4-(3,3-dimethylureido)phenyl)pyrrolidin-2-yl)thiazol-2-yl)-1-((2-fluoropyridin-4-yl)methyl)-4-methyl-1H-pyrrole-2-carboxamide] |  |  |  |  |  |  | 714 | > 25000 | 50.2 | 36.3 | 67.5 | 44.9 | 16.1 | 328 | 20.3 | 29.9 | 39.6 | 2.5 |
| CC(=O)N[C@@H](C)c1ccc(N2CCC[C@@H]2c2csc(NC(=O)c3cccn3Cc3ccncc3)n2)cc1 [Compound A73, N-(4-((R)-1-(4-((S)-1-acetamidoethyl)phenyl)pyrrolidin-2-yl)thiazol-2-yl)-1-(pyridin-4-ylmethyl)-1H-pyrrole-2-carboxamide] |  |  |  |  |  |  | 3750 | > 25000 | 15 | 0.14 | 0.1 | 0.08 | 26.6 | 350 | 13.2 | 23.6 | 88.5 | 3.3 |
| CC(=O)N1CCC[C@@H](Oc2ccc(N3CCC[C@@H]3c3csc(NC(=O)c4cccn4Cc4ccnc(F)c4)n3)cc2)C1 [Compound A83] |  |  |  |  |  |  | 4000 | > 25000 | 16.6 | 0.55 | 0.64 | 0.16 | 82.1 | 1530 | 18.6 | 249 | 232 | 2.8 |
| NC(=O)N1CCC(Oc2ccc(N3CCC[C@@H]3c3csc(NC(=O)c4cccn4Cc4ccnc(F)c4)n3)cn2)CC1 [Compound A159, (R)-4-((5-(2-(2-(1-((2-fluoropyridin-4-yl)methyl)-1H-pyrrole-2-carboxamido)thiazol-4-yl)pyrrolidin-1-yl)pyridin-2-yl)oxy)piperidine-1-carboxamide] |  |  |  |  |  |  | 1620 | > 25000 | 19.7 | 36 | 9.01 | 3.91 | 27.9 | 790 | 28.3 | 35.8 | 80.6 | 2.9 |
| Cc1cc(Cn2cccc2C(=O)Nc2nc([C@H]3CCCN3c3ccccc3)cs2)ccn1 [Compound A52, (R)-1-((2-methylpyridin-4-yl)methyl)-N-(4-(1-phenylpyrrolidin-2-yl)thiazol-2-yl)-1H-pyrrole-2-carboxamide] |  |  |  |  |  |  | 20600 | > 25000 | 0.63 | 3.47 | 1.11 | 0.33 | 340 | 4050 | 11.9 | 450 | 912 | 2.7 |
| CC(C)n1cnc(/C=C/c2csc(NC(=O)c3cccn3Cc3ccnc(F)c3)n2)c1 [Compound B45, (E)-1-((2-fluoropyridin-4-yl)methyl)-N-(4-(2-(1-isopropyl-1H-imidazol-4-yl)vinyl)thiazol-2-yl)-1H-pyrrole-2-carboxamide] |  |  |  |  |  |  | 19900 | > 24200 | 16.3 | 23.2 | 0.1 | 0.19 | 42.1 | > 25000 | >593 | > 25000 | > 22600 | >540 |
| O=C(Nc1nc(C2Cc3cccnc3C2)cs1)c1cccn1Cc1ccncc1 (stereo not drawn) [Compound E37, N-(4-(6,7-dihydro-5H-cyclopenta[b]pyridin-6-yl)thiazol-2-yl)-1-(pyridin-4-ylmethyl)-1H-pyrrole-2-carboxamide] | 2900 | > 25000 | >8.63 | 8040 | 16500 | 5.7 | > 25000 | > 25000 | 0.34 | 0.18 | 0.08 | 0.08 |  |  |  |  |  |  |
| CN(C)C(=O)N1CC(Oc2ccc(N3CCC[C@@H]3c3csc(NC(=O)c4cccn4Cc4ccnc(F)c4)n3)cc2)C1 [Compound A131, (R)-N-(4-(1-(4-((1-(dimethylcarbamoyl)azetidin-3-yl)oxy)phenyl)pyrrolidin-2-yl)thiazol-2-yl)-1-((2-fluoropyridin-4-yl)methyl)-1H-pyrrole-2-carboxamide] |  |  |  |  |  |  | 1110 | > 25000 | 42.9 | 20.4 | 11.8 | 6.3 | 30.9 | 508 | 16.4 | 48.1 | 64.7 | 2.1 |
